Reference: ChEMBL document CHEMBL3091457, “Design, synthesis, and biological activities of novel hexahydropyrazino[1,2-a]indole derivatives as potent inhibitors of apoptosis (IAP) proteins antagonists with improved membrane permeability across MDR1 expressing cells” (Bioorg Med Chem, 2013)

Experiments:
[1] = molecular target: T1, MDR1 (ABCB1, P-glycoprotein) (Homo sapiens, UniProt P08183); test: Activity at human MDR1 expressed in pig LLC-PK1 cells assessed as apparent permeability at 10 umol/L after 2 hrs by LC-MS/MS analysis; assay type: ADME, cell-based
[2] = molecular target: T1, MDR1 (ABCB1, P-glycoprotein); test: Activity at human MDR1 expressed in pig LLC-PK1 cells assessed as efflux ratio of permeability from basolateral to apical side over apical to basolateral side at 10 umol/L after 2 hrs by LC-MS/MS analysis; assay type: ADME, cell-based
[3] = system: MDA-MB-231; test: Growth inhibition of human MDA-MB-231 cells after 72 hrs by CellTiter-Glo assay; assay type: functional; settings: MDA-MB-231, 72 h

T1 sequence (P08183 whole entry): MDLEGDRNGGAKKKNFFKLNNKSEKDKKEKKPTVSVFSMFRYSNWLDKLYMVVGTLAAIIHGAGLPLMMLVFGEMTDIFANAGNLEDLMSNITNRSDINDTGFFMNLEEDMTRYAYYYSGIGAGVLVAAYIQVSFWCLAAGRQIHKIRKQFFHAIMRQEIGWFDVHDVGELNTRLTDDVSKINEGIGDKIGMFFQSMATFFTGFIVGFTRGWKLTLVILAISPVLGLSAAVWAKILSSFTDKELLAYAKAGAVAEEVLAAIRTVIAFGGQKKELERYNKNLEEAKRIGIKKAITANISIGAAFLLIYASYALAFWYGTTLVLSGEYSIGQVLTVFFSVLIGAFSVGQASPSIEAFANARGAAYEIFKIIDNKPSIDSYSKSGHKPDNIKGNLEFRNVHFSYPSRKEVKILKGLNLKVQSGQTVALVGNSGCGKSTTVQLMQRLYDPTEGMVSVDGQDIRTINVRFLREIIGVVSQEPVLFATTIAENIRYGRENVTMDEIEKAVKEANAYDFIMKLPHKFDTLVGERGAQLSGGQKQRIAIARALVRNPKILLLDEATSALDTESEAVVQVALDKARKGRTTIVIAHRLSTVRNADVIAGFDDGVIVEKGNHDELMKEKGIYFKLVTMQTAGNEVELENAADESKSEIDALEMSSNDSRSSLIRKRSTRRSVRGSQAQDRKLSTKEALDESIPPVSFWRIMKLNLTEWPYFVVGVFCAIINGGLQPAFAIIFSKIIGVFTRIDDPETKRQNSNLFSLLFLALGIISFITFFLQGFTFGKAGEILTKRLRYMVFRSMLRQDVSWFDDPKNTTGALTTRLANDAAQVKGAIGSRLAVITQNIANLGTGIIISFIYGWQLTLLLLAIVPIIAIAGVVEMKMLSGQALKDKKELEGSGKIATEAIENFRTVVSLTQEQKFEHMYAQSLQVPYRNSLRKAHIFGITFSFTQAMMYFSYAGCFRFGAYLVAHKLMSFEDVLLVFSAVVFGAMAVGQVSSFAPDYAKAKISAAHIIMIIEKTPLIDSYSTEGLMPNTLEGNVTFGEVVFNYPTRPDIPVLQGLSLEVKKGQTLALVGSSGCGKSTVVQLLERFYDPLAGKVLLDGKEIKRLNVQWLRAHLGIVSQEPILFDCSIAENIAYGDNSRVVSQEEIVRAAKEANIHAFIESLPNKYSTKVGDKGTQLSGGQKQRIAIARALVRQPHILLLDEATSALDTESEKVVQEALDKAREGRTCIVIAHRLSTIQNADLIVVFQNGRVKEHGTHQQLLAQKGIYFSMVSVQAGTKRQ

| SMILES | Papp at 2 h, 10 µM [1] | efflux ratio at 2 h, 10 µM [2] | GI50 [3] |
| --- | --- | --- | --- |
| CCO[C@@H]1C[C@@H]2CN(C(=O)[C@@H](NC(=O)[C@H](C)NC)C3CCC(F)(F)CC3)[C@H](C(=O)N[C@@H]3CCOc4ccccc43)CN2C1 | 0.1 ×10⁻⁶ cm/s | 24 |  |
| CN[C@@H](C)C(=O)N[C@H](C(=O)N1C[C@H]2CCCN2C[C@H]1C(=O)N[C@@H]1CCOc2ccccc21)C1CCCCC1 | 0.5 ×10⁻⁶ cm/s |  | 5.7 nM |
| CN[C@@H](C)C(=O)N[C@H](C(=O)N1C[C@H]2Cc3ccccc3N2C[C@H]1C(=O)N[C@@H]1CCOc2ccccc21)C1CCCCC1 | 4.1 ×10⁻⁶ cm/s |  | 15 nM |
| CC[C@H](NC)C(=O)N[C@H](C(=O)N1C[C@@H]2Cc3cc(Cl)cc(Cl)c3N2C[C@H]1C(=O)N[C@@H]1CCOc2ccccc21)C1CCCCC1 | 7.5 ×10⁻⁶ cm/s |  | 5.9 nM |
| CC[C@H](NC)C(=O)N[C@H](C(=O)N1C[C@@H]2Cc3cc(Cl)ccc3N2C[C@H]1C(=O)N[C@@H]1CCOc2ccccc21)C1CCCCC1 | 6.4 ×10⁻⁶ cm/s |  |  |
| CN[C@@H](C)C(=O)N[C@H](C(=O)N1C[C@@H]2CCCN2C[C@H]1C(=O)N[C@@H]1CCOc2ccccc21)C1CCCCC1 | 0.3 ×10⁻⁶ cm/s |  | 13 nM |
| CC[C@H](NC)C(=O)N[C@H](C(=O)N1C[C@H]2CCCN2C[C@H]1C(=O)N[C@@H]1CCOc2ccccc21)C1CCCCC1 |  |  | 4.6 nM |

More lines, now with the values ahead:

| Papp at 2 h, 10 µM [1] | efflux ratio at 2 h, 10 µM [2] | GI50 [3] | SMILES |
| --- | --- | --- | --- |
| 1.4 ×10⁻⁶ cm/s |  | 1.9 nM | CC[C@H](NC)C(=O)N[C@H](C(=O)N1C[C@@H]2Cc3cc(C#N)ccc3N2C[C@H]1C(=O)N[C@@H]1CCOc2ccccc21)C1CCCCC1 |
| 2.5 ×10⁻⁶ cm/s |  | 1.8 nM | CC[C@H](NC)C(=O)N[C@H](C(=O)N1C[C@@H]2Cc3ccccc3N2C[C@H]1C(=O)N[C@@H]1CCOc2ccccc21)C1CCCCC1 |
| 8.6 ×10⁻⁶ cm/s |  | 4.4 nM | CC[C@H](NC)C(=O)N[C@H](C(=O)N1C[C@H]2Cc3ccccc3N2C[C@H]1C(=O)N[C@@H]1CCOc2ccccc21)C1CCCCC1 |
